pIC50: −log10 of the molar value. Like-named read-outs stand apart in the source and are kept apart here.

In assay [1] the test system is Phosphorylation of ERK½ in A549 cells. The experiment in a line: Phospho-ERK½ MSD Assay in A549 cells. The format is cell-based. As to conditions: 4 hours compound treatment, 10 ng/mL EGF for 10 min, read-out: p-ERK IC50 (A549). Here is the method:
(§1) Phospho-ERK½ MSD Assay: MIA PaCa-2 (ATCC® CRL-1420™) and A549 (ATCC® CCL-185™) cells were cultured in RPMI 1640 Medium (ThermoFisher Scientific 11875093) containing 10% fetal bovine serum (ThermoFisher Scientific 16000044) and 1× penicillin-streptomycin-glutamine (ThermoFisher Scientific 10378016). Sixteen hours prior to compound treatment, MIA PaCa-2 or A549 cells were seeded in 96-well cell culture plates at a density of 25,000 cells/well and incubated at 37° C., 5% CO2. A compound dose-response titration was diluted in growth media, added to appropriate wells of a cell culture plate, and then incubated at 37° C., 5% CO2 for 4 hours. Following compound treatment, cells were stimulated with 10 ng/mL EGF (Roche 11376454001) for 10 min, washed with ice-cold Dulbecco's phosphate-buffered saline, no Ca^2+ or Mg^2+ (ThermoFisher Scientific 14190144), and then lysed in RIPA buffer (50 mM Tris-HCl pH 7.5, 1% Igepal, 0.5% sodium deoxycholate, 150 mM NaCl, and 0.5% sodium dodecyl sulfate) containing protease inhibitors (Roche 4693132001) and phosphatase inhibitors (Roche 4906837001). Cell lysates were stored frozen at −80° C. overnight. Phosphorylation of ERK½ in compound-treated lysates was assayed using Phospho-ERK½ Whole Cell Lysate kits (Meso Scale Discovery K151DWD) according to the manufacturer's protocol. Assay plates were read on a Meso Scale Discovery Sector Imager 6000, and data were analyzed using a 4-parameter logistic model to calculate IC50 values.

Assay [2] addresses GDP-bound protein (aa 1-169), containing both G12C and C118A amino acid substitutions (Homo sapiens, UniProt P01116, C118A/G12C). The assay can be described thus: Coupled Nucleotide Exchange Assay (SOS-mediated nucleotide exchange, AlphaScreen). The format is biochemical. The conditions noted are these: 2 hours compound pre-incubation. The method, boiled down:
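His-tagged GDP-bound […] (aa 1-169, G12C/C118A) pre-incubated 2 h with compound titration in 25 mM HEPES pH 7.4, 10 mM MgCl2, 0.01% Triton X-100.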
Background: Alpha assays give light when donor and acceptor beads are brought close together.

Assay [3] concerns Phosphorylation of ERK½ in MIA PaCa-2 cells. The assay can be described thus: Phospho-ERK½ MSD Assay in MIA PaCa-2 cells. The format is cell-based. The conditions noted are these: 4 hours compound treatment, 10 ng/mL EGF for 10 min, read-out: p-ERK IC50 (MIA PaCa-2). The procedure: as §1
The mark [4] stands for this setting: Homo sapiens, MIA PaCa-2, MIA PaCa-2 cells.

GDP-bound protein (aa 1-169), containing both G12C and C118A amino acid substitutions, sequence (P01116 1-169 isoform P01116-2 G12C/C118A): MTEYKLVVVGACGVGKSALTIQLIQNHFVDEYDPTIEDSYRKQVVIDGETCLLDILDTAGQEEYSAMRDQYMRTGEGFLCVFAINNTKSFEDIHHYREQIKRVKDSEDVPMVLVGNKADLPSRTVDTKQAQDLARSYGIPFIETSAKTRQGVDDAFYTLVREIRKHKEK

On to `C=CC(=O)N1CCN(c2nc(=O)n(-c3ccccc3C(C)C)c3cc(-c4c(C)ccc5[nH]ncc45)c(Cl)cc23)CC1` (single isomer, unassigned) [Example 11-1-1, 6-chloro-7-(5-methyl-1H-indazol-4-yl)-1-(2-(2-propanyl)phenyl)-4-(4-(2-propenoyl)-1-piperazinyl)-2(1H)-quinazolinone], for which the pIC50 (as a rule, −log10 of the IC50, conventionally taken in molar units) in assay [1] (Homo sapiens, A549, A549 cells) is 4.37; in assay [3] (MIA PaCa-2 cells), 6.61. The “Coupled exchange IC50” value in assay [2] was determined as 0.231 µM.
Take `C=CC(=O)N1CCN(c2snc3c(F)c(-c4cc(O)ccc4Cl)c(Cl)cc23)CC1` [Example 3-11, 1-(4-(5-chloro-6-(2-chloro-5-hydroxyphenyl)-7-fluoro-2,1-benzothiazol-3-yl)-1-piperazinyl)-2-propen-1-one]: the negative-log IC50 (pIC50) is 4.95 in assay [1] (Homo sapiens, A549, A549 cells) and 5.51 in assay [3] (setting [4]). In assay [2], the “Coupled exchange IC50” value is 0.457 µM.
Taken in the same sequence, the figures for `C=CC(=O)N1CCN(c2nc(=O)n(-c3ccccc3C(C)CC)c3cc(-c4cc(O)cc5ccccc45)c(Cl)cc23)CC1` (racemic) [Example 9-4, 1-(2-(2-butanyl)phenyl)-6-chloro-7-(3-hydroxy-1-naphthalenyl)-4-(4-(2-propenoyl)-1-piperazinyl)-2(1H)-quinazolinone] were 4.89, 7.64 and 0.198 µM.
In the case of `C=CC(=O)N1CCN(c2nc(=O)n(-c3ccccc3C(C)C)c3nc(-c4c(O)cccc4F)c(Cl)cc23)[C@@H](C)C1` (single isomer, unassigned) [Example 8-6-2], the pIC50 was under 4.00 in assay [1] (A549 cells, listed as 8-6-7) and 6.89 in assay [3] (MIA PaCa-2 cells). Also, the “Coupled exchange IC50” value in assay [2] was determined as 0.185 µM.
As to `C=CC(=O)N1CCN(c2nnc(-c3cccc4[nH]ccc34)c3cc(-c4c(O)cccc4F)c(Cl)cc23)CC1` [Example 10-9, 1-(4-(7-chloro-6-(2-fluoro-6-hydroxyphenyl)-4-(1H-indol-4-yl)-1-phthalazinyl)-1-piperazinyl)-2-propen-1-one], the pIC50 was under 4.00 in assay [1] (Homo sapiens, A549, A549 cells) and 4.47 in assay [3] (setting [4]). Besides, the “Coupled exchange IC50” value in assay [2] amounted to 1.68 µM.
In the same order, the values of `C=CC(=O)N1CCN(c2nc(=O)n(-c3ccccc3C(C)C)c3cc(-c4cccc(Cl)c4Cl)c(Cl)cc23)[C@@H](C)C1` [Example 9-10, 6-chloro-7-(2,3-dichlorophenyl)-4-((2S)-2-methyl-4-(2-propenoyl)-1-piperazinyl)-1-(2-(2-propanyl)phenyl)-2(1H)-quinazolinone] are 4.18, 6.93 and 0.101 µM.
Take `C=CC(=O)N1CCN(c2snc3nc(-c4cc(O)cc5ccccc45)c(Cl)cc23)C(C)C1` (single isomer, unassigned) [Example 2-5-1, 1-((3S)-4-(5-chloro-6-(3-hydroxy-1-naphthalenyl) [1,2]thiazolo[3,4-b]pyridin-3-yl)-3-methyl-1-piperazinyl)-2-propen-1-one or 1-((3R)-4-(5-chloro-6-(3-hydroxy-1-naphthalenyl) [1,2]thiazolo[3,4-b]pyridin-3-yl)-3-methyl-1-piperazinyl)-2-propen-1-one]: the pIC50 was under 4.00 in assay [1] (A549 cells) and 5.94 in assay [3] (MIA PaCa-2 cells). Also, the “Coupled exchange IC50” value in assay [2] is 0.308 µM.
For `C=CC(=O)N1CCN(c2snc3c(F)c(-c4cc(O)cc5ccccc45)c(Cl)cc23)C[C@@H]1CO` (racemic) [Example 1-16, 1-(4-(5-chloro-7-fluoro-6-(3-hydroxy-1-naphthalenyl)-2,1-benzothiazol-3-yl)-2-(hydroxmethyl)-1-piperazinyl)-2-propen-1-one], the pIC50 was under 4.00 in assay [1] (Homo sapiens, A549, A549 cells) and 5.32 in assay [3] (setting [4]). Moreover, the “Coupled exchange IC50” value in assay [2] is 0.492 µM.
Taken in the same sequence, the figures for `C=CC(=O)N1CCN(c2snc3nc(-c4cc(O)cc5ccccc45)c(Cl)cc23)C(C)C1` (racemic) [Example 2-5, 1-(4-(5-chloro-6-(3-hydroxy-1-naphthalenyl)[1,2]thiazolo[3,4-b]pyridin-3-yl)-3-methyl-1-piperazinyl)-2-propen-1-one] were 5.43, 5.26 and 0.684 µM.
In the same order, the values of `C=CC(=O)N1CCN(c2snc3c(F)c(-c4cc(N)ccc4C)c(Cl)cc23)CC1` [Example 3-12, 1-(4-(6-(5-amino-2-methylphenyl)-5-chloro-7-fluoro-2,1-benzothiazol-3-yl)-1-piperazinyl)-2-propen-1-one] are under 4.00, 5.12 and 2.56 µM.
Taken in the same sequence, the figures for `C=CC(=O)N1CCN(c2nnc(Oc3ccccc3)c3cc(-c4c(O)cccc4F)c(Cl)cc23)CC1` [Example 16, 1-(4-(7-Chloro-6-(2-fluoro-6-hydroxyphenyl)-4-phenoxy-1-phthalazinyl)-1-piperazinyl)-2-propen-1-one] were 4.48, 5.06 and 2.93 µM.
For the compound `C=CC(=O)N1CCN(c2snc3c(F)c(-c4cc(N)ccc4Cl)c(Cl)cc23)CC1` [Example 3-19, 1-(4-(6-(5-amino-2-chlorophenyl)-5-chloro-7-fluoro-2,1-benzothiazol-3-yl)-1-piperazinyl)-2-propen-1-one], the negative logarithm of the IC50 (pIC50) in assay [1] (Homo sapiens, A549, A549 cells) is under 4.48; in assay [3] (setting [4]), 5.69. In addition, in assay [2], the “Coupled exchange IC50” value is 0.954 µM.
With `C=CC(=O)N1CCN(c2nc(=O)n(-c3ccccc3C(C)C)c3nc(-c4c(O)cccc4F)c(Cl)cc23)[C@@H](C)C1` [Example 8-6, 6-chloro-7-(2-fluoro-6-hydroxyphenyl)-4-((2S)-2-methyl-4-(2-propenoyl)-1-piperazinyl)-1-(2-(2-propanyl)phenyl)pyrido[2,3-d]pyrimidin-2(1H)-one], the values for the pIC50 in assay [1] (A549 cells) and in assay [3] (MIA PaCa-2 cells) were 4.16 and 7.92, respectively. The “Coupled exchange IC50” value in assay [2] is 0.100 µM.
Take `C=CC(=O)N1CCN(c2snc3c(F)c(-c4cc(O)cc5ccccc45)c(Cl)cc23)C(C(=O)OC)C1` (racemic) [Example 7-3, methyl 4-acryloyl-1-(5-chloro-7-fluoro-6-(3-hydroxynaphthalen-1-yl)benzo[c]isothiazol-3-yl)piperazine-2-carboxylate]: the pIC50 is under 4.00 in assay [1] (Homo sapiens, A549, A549 cells) and 5.23 in assay [3] (setting [4]). Besides, the “Coupled exchange IC50” value in assay [2] amounted to 1.73 µM.
For `C=CC(=O)N1CC2(C1)CN(c1snc3c(F)c(-c4cc(O)cc5ccccc45)c(Cl)cc13)C2` [Example 4-1, 1-(6-(5-Chloro-7-fluoro-6-(3-hydroxynaphthalen-1-yl)benzo[c]isothiazol-3-yl)-2,6-diazaspiro[3.3]heptan-2-yl)prop-2-en-1-one], the pIC50 was under 4.00 in assay [1] (Homo sapiens, A549, A549 cells) and 5.63 in assay [3] (setting [4]). Further, the “Coupled exchange IC50” value in assay [2] was determined as 0.529 µM.
In the same order, the values of `C=CC(=O)NC1CN(c2snc3c(F)c(-c4cc(O)cc5ccccc45)c(Cl)cc23)C1` [Example 4-6, N-(1-(5-chloro-7-fluoro-6-(3-hydroxy-1-naphthalenyl)-2,1-benzothiazol-3-yl)-3-azetidinyl)-2-propenamide] are under 4.00, 4.99 and 0.630 µM.
Take `C=CC(=O)N1CCN(c2nc(=O)n(-c3ccccc3C(C)C)c3cc(-c4c(O)cccc4F)c(Cl)cc23)[C@@H](C)C1` [Example 8-3, 6-chloro-7-(2-fluoro-6-hydroxyphenyl)-4-((2S)-2-methyl-4-(2-propenoyl)-1-piperazinyl)-1-(2-(2-propartyl)phenyl)-2(1H)-quinazolinone]: the pIC50 in assay [1] (Homo sapiens, A549, A549 cells) is under 4.00; in assay [3] (setting [4]) it was 7.21. In addition, in assay [2], the “Coupled exchange IC50” value is 0.783 µM.
Taken in the same sequence, the figures for `C=C(CBr)C(=O)N1CCN(c2snc3c(F)c(-c4cc(O)cc5ccccc45)c(Cl)cc23)CC1` [Example 18-2, 2-(Bromomethyl)-1-(4-(5-chloro-7-fluoro-6-(3-hydroxy-1-naphthalenyl)-2,1-benzothiazol-3-yl)-1-piperazinyl)-2-propen-1-one] were under 4.00, under 4.00 and 0.760 µM.
`C=CC(=O)N1CCN(c2snc3c(F)c(-c4cc(O)cc5ccccc45)c(Cl)cc23)[C@@H](C)C1` (single isomer, unassigned) [Example 1-19-1]: the pIC50 was under 4.00 in assay [1] (Homo sapiens, A549, A549 cells) and 6.43 in assay [3] (setting [4]). For the same compound, in assay [2], the “Coupled exchange IC50” value worked out at 0.115 µM.

(Values after patent publication US11285135B2 (AMGEN INC., priority 2016, dated 2022).)
